Each compound was assayed against T1, NLRP3 inflammasome (Homo sapiens, UniProt Q96P20) (assay: THP-1 Cell-Based NLRP3 Activation Assay). Settings: THP-1 cells, PMA, 100 ng/mL LPS 3 hrs, 30 min pre-incubation with test compound, 10 μM nigericin 1 hr.
T1 construct: endogenous in cells; host or cells: THP-1 cells (PMA-differentiated, LPS-primed, nigericin-stimulated)
T1 sequence (Q96P20 whole entry): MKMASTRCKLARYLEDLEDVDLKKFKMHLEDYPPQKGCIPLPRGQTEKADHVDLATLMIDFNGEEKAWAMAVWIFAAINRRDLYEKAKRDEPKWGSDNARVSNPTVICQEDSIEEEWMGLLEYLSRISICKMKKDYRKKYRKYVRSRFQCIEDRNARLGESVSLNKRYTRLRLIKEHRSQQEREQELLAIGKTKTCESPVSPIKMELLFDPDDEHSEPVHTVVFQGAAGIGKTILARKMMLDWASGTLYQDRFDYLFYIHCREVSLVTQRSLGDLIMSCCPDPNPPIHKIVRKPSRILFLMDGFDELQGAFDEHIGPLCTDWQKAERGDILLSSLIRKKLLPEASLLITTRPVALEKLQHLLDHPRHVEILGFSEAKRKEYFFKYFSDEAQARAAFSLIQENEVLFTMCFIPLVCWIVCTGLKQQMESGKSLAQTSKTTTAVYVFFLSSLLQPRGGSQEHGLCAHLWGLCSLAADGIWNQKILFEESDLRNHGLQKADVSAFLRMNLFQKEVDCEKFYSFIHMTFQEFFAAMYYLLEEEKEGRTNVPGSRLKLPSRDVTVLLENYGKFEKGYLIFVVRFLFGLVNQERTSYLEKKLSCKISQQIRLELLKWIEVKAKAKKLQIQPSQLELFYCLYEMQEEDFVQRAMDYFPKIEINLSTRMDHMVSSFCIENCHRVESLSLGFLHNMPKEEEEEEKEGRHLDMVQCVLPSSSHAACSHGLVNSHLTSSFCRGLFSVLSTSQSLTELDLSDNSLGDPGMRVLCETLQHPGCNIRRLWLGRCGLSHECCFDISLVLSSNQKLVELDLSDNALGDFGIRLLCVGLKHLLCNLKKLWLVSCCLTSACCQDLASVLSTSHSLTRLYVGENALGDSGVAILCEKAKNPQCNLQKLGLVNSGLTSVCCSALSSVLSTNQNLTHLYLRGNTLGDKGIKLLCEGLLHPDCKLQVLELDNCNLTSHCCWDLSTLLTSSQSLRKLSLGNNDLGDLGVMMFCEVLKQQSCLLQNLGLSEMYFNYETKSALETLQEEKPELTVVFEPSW
Procedure: THP-1 cells are cultured in complete media (CM) until they reach logarithmic growth and achieve a viability >90%. CM is composed of RPMI-1640 (+Glutamax)/10% fetal bovine serum/55 μM β-mercaptoethanol/pen/strep. Cells are spun down and resuspended to 1,000,000 cells/mL in CM containing either 20 nM or 500 nM PMA. 150,000 cells […] are then added to each well of a 96-well TC plate and incubated for either 24 hr or 3 hr, respectively, in a standard cell culture incubator (37° C.; 5% CO2). After this incubation, the plate is tilted and media carefully removed. 200 μL of CM containing 100 ng/mL LPS is then added to the wells and the cells incubated an additional 3 hrs. The media is again removed and replaced with Opti-Mem medium containing pre-determined dilutions of test compounds in replicate wells. After a 30 min pre-incubation with test compound, 10 μM nigericin (final concentration) in Opti-Mem medium with the corresponding concentration of compound is added to the wells for an additional 1 hr. Positive control wells contain 10 μM nigericin in Opti-Mem in the absence of test compound, while negative control wells contain Opti-Mem only. […] Once supernatants are removed, the relative viability of adherent cells in the 96-well TC plate are determined using a CellTiter-Glo® luminescent cell viability assay (Promega).
Compound `CCOc1cc(C(=O)N(C)Cc2c(C)nc(CF)c3cn[nH]c23)ccc1-c1cccc(F)c1` [Compound 173] has an IC50 of less than 1000 nM. `CC(O)c1ncc(CN(C)C(=O)c2ccc(-c3ccc(Cl)s3)c(OC3CC3)c2)c2[nH]ncc12` (centres unmarked) [Compound 168] showed an IC50 of less than 1000 nM. `CCOc1cc(C(=O)N(C)[C@H](C)c2cnc(CO)c3cn[nH]c23)ccc1-c1cccc(F)c1` [Compound 159] gave an IC50 of less than 1000 nM. Compound `CCOc1cc(C(=O)N(C)Cc2cnc(C(C)O)c3cn[nH]c23)ccc1-c1cc(F)cc(F)c1` (centres unmarked) [Compound 026] has an IC50 of less than 1000 nM. In the case of `CCOc1cc(C(=O)N(C)Cc2cnc(C(C)O)c3cn[nH]c23)cc(F)c1-c1ccsc1` (centres unmarked) [Compound 088], the IC50 is reported as less than 1000 nM. For `CCOc1cc(C(=O)N(C)Cc2cnc(C(C)O)c3cn[nH]c23)ccc1-c1ccccc1` (centres unmarked) [Compound 031], the IC50 was less than 1000 nM. For `CCOc1cc(C(=O)N(CC)Cc2cnc(C(C)O)c3cn[nH]c23)ccc1-c1cccc(Cl)c1` (centres unmarked) [Compound 176], the IC50 was less than 1000 nM. In the case of `Cc1ncc(CN(C)C(=O)c2cc(F)c(-c3cccc(Cl)c3)c(OC3CC3)c2)c2[nH]ncc12` [Compound 048], the IC50 is reported as less than 1000 nM. Work on `CCOc1cc(C(=O)N(C)Cc2cnc(C(C)O)c3cn[nH]c23)ccc1-c1nc(Cl)cs1` (centres unmarked) [Compound 158] yielded an IC50 of less than 1000 nM. Work on `CCN(Cc1cnc(CO)c2cn[nH]c12)C(=O)c1cc(F)c(-c2cccc(F)c2)c(OC2CC2)c1` [Compound 180] yielded an IC50 of less than 1000 nM. For `Cc1ncc(CN(C)C(=O)c2cc(F)c(-c3ccccc3)c(OC3CC3)c2)c2[nH]ncc12` [Compound 064], the IC50 was less than 1000 nM. `CCOc1cc(C(=O)NCc2cnc(CO)c3cn[nH]c23)ccc1-c1cccc(F)c1` [Compound 150] was tested, and the IC50 was less than 1000 nM. In the case of `CCOc1nc(C(=O)N(C)[C@H](C)c2cnc(C)c3cn[nH]c23)ccc1-c1cccc(F)c1` [Compound 124], the IC50 is reported as less than 50000 nM. With `CCOc1cc(C(=O)N(C)Cc2cnc(C(C)O)c3cn[nH]c23)ccc1-c1cccc(C#N)c1` (centres unmarked) [Compound 029] the IC50 was less than 1000 nM. `C[C@@H](c1cncc2cn[nH]c12)N(C)C(=O)c1ccc(-c2cccc(F)c2)c(OC2CC2)c1` [Compound 052] showed an IC50 of less than 1000 nM. Compound `CCOc1cc(C(=O)N(C)Cc2cnc(CF)c3cn[nH]c23)ccc1C#CC1CC1` [Compound 001] has an IC50 of less than 1000 nM. Work on `Cc1nc(C)c2cn[nH]c2c1CN(C)C(=O)c1cc(F)c(-c2cccc(F)c2)c(OC2CC2)c1` [Compound 119] yielded an IC50 of less than 1000 nM. In the case of `Cc1ncc(CN(C)C(=O)c2cc(F)c(-c3cccc(F)c3)c(OC3CC3)c2)c2[nH]ncc12` [Compound 038], the IC50 is reported as less than 1000 nM. `CCOc1cc(C(=O)N(C)[C@H](C)c2c(O)ccc3cn[nH]c23)ccc1-c1cccc(F)c1` (single isomer, unassigned) [Compound 184] showed an IC50 of less than 10000 nM. For `CN(Cc1cnc(CO)c2cn[nH]c12)C(=O)c1cc(Cl)c(-c2cccc(Cl)c2)c(OC2CC2)c1` [Compound 161], the IC50 was less than 1000 nM. `CCN(Cc1cnc(CO)c2cn[nH]c12)C(=O)c1cc(F)c(-c2cccc(C#N)c2)c(OC2CC2)c1` [Compound 087] was tested, and the IC50 was less than 1000 nM. `CCN(Cc1cnc(CO)c2cn[nH]c12)C(=O)c1ccc(-c2cccc(C#N)c2)c(OC2CC2)c1` [Compound 082] gave an IC50 of less than 50000 nM. With `CCOc1nc(C(=O)N(C)[C@@H](C)c2ccc(CF)c3cn[nH]c23)ccc1-c1cccc(F)c1` [Compound 074] the IC50 was less than 50000 nM. `CCOc1cc(C(=O)N(C)Cc2cnc(C(C)O)c3cn[nH]c23)cc(F)c1-c1cccs1` (centres unmarked) [Compound 154] gave an IC50 of less than 1000 nM. Work on `CCOc1cc(C(=O)N(C)Cc2cnc(C)c3cn[nH]c23)ccc1-c1cc(F)cs1` [Compound 140] yielded an IC50 of less than 10000 nM. In the case of `CC(O)c1ncc(CN(C)C(=O)c2cc(F)c(-c3cccc(Cl)c3)c(OC3CC3)c2)c2[nH]ncc12` (centres unmarked) [Compound 115], the IC50 is reported as less than 1000 nM. For `CCOc1nc(C(=O)N(C)[C@@H](C)c2cnc(C)c3cn[nH]c23)ccc1-c1cccc(F)c1` [Compound 123], the IC50 was less than 1000 nM. Compound `Cc1nc(CO)c2cn[nH]c2c1CN(C)C(=O)c1ccc(-c2cccc(Cl)c2)c(OC2CC2)c1` [Compound 041] has an IC50 of less than 1000 nM. `CCN(Cc1cnc(CO)c2cn[nH]c12)C(=O)c1ccc(-c2cccc(Cl)c2)c(OC2CC2)c1` [Compound 182] gave an IC50 of less than 1000 nM. Compound `CCOc1cc(C(=O)N(C)[C@@H](C)c2cnc(CO)c3cn[nH]c23)ccc1-c1cccc(F)c1` [Compound 160] has an IC50 of less than 1000 nM. `CN(Cc1cnc(CF)c2cn[nH]c12)C(=O)c1cc(F)c(-c2cccs2)c(OC2CC2)c1` [Compound 105] showed an IC50 of less than 1000 nM. Work on `CCOc1cc(C(=O)N(C)Cc2c(CO)ncc3cn[nH]c23)ccc1-c1cccc(F)c1` [Compound 039] yielded an IC50 of less than 1000 nM. `CCOc1cc(C(=O)N(C)Cc2cnc(C(C)O)c3cn[nH]c23)cc(Cl)c1-c1cccc(Cl)c1` (centres unmarked) [Compound 166] was tested, and the IC50 was less than 1000 nM. `CCOc1nc(C(=O)N(C)[C@H](C)c2ccc(CF)c3cn[nH]c23)ccc1-c1cccc(F)c1` [Compound 075] gave an IC50 of less than 50000 nM. In the case of `CN(Cc1cc(O)cc2cn[nH]c12)C(=O)c1cc(F)c(-c2cccc(Cl)c2)c(OC2CC2)c1` [Compound 113], the IC50 is reported as less than 1000 nM. `CCOc1cc(C(=O)N(C)Cc2cnc(C(C)O)c3cn[nH]c23)cc(F)c1-c1cc(F)cs1` (centres unmarked) [Compound 081] showed an IC50 of less than 1000 nM. Work on `CN(Cc1cnc(CO)c2cn[nH]c12)C(=O)c1ccc(-c2cccc(Cl)c2)c(OC2COC2)c1` [Compound 108] yielded an IC50 of less than 1000 nM. `CCOc1cc(C(=O)N(C)Cc2cc(OC(C)=O)cc3cn[nH]c23)ccc1-c1cccc(F)c1` [Compound 007] showed an IC50 of less than 1000 nM. For `Cc1nc(CO)c2cn[nH]c2c1CN(C)C(=O)c1cc(F)c(-c2cccc(Cl)c2)c(OC2CC2)c1` [Compound 040], the IC50 was less than 1000 nM. `CCOc1cc(C(=O)N(CC)Cc2cnc(C(C)O)c3cn[nH]c23)cc(F)c1-c1cccc(Cl)c1` (centres unmarked) [Compound 172] was tested, and the IC50 was less than 1000 nM. With `CN(Cc1cnc(CO)c2cn[nH]c12)C(=O)c1cc(Cl)c(-c2cccc(F)c2)c(OC2CC2)c1` [Compound 162] the IC50 was less than 1000 nM. `CCOc1cc(C(=O)N(C)Cc2cnc(C(C)O)c3cn[nH]c23)cc(F)c1-c1cccc(F)c1` (centres unmarked) [Compound 118] showed an IC50 of less than 1000 nM. With `CCOc1cc(C(=O)N(C)Cc2cccc3cn[nH]c23)sc1-c1cccc(F)c1` [Compound 121] the IC50 was less than 1000 nM. Work on `CCOc1cc(C(=O)N(C)Cc2cnc(C(C)O)c3cn[nH]c23)ccc1-c1nccs1` (centres unmarked) [Compound 149] yielded an IC50 of less than 10000 nM. In the case of `CC(O)c1ncc(CN(C)C(=O)c2cc(F)c(-c3cccc(C#N)c3)c(OC3CC3)c2)c2[nH]ncc12` (centres unmarked) [Compound 091], the IC50 is reported as less than 1000 nM. `CCOc1cc(C(=O)N(CC)Cc2cnc(CO)c3cn[nH]c23)ccc1-c1cccc(Cl)c1` [Compound 177] gave an IC50 of less than 1000 nM. With `CN(Cc1c(CO)ncc2cn[nH]c12)C(=O)c1cc(F)c(-c2cccc(Cl)c2)c(OC2CC2)c1` [Compound 145] the IC50 was less than 1000 nM. `CCOc1nc(C(=O)N(C)[C@H](C)c2cncc3cn[nH]c23)ccc1-c1cccc(F)c1` [Compound 057] showed an IC50 of less than 50000 nM. `CC(C)Oc1cc(C(=O)N(C)Cc2cnc(C(C)O)c3cn[nH]c23)ccc1-c1cc(F)cc(F)c1` (centres unmarked) [Compound 146] gave an IC50 of less than 1000 nM. In the case of `CCOc1cc(C(=O)N(C)Cc2cnc(C(C)F)c3cn[nH]c23)ccc1-c1cccc(F)c1` (centres unmarked) [Compound 070], the IC50 is reported as less than 1000 nM. Work on `CCOc1cc(C(=O)N(C)Cc2cnc(C(C)O)c3cn[nH]c23)cc(F)c1-c1cc(F)cc(C#N)c1` (centres unmarked) [Compound 076] yielded an IC50 of less than 1000 nM. In the case of `CCOc1cc(C(=O)N(C)Cc2cc(O)c(C)c3cn[nH]c23)ccc1-c1cccc(F)c1` [Compound 015], the IC50 is reported as less than 1000 nM. `CCOc1cc(C(=O)N(C)C(C)c2cnc(CF)c3cn[nH]c23)ccc1-c1cccc(F)c1` (centres unmarked) [Compound 055] gave an IC50 of less than 1000 nM.

— US20240116933A1, “INDAZOLE AND PYRAZOLOPYRIDINE COMPOUNDS AS INHIBITORS OF NLRP3 INFLAMMASOME” (BioAge Labs, Inc., priority 2022, published 2024)
